Data on four compounds can be found in patent US10577371B2, “Small molecule histone methyltransferase SUV39H1 inhibitor and uses thereof” (Augusta University Research Institute, Inc., priority 2017, dated 2020).

Molecules are shown by their SMILES. A value given as a limit tells only on which side of the number the result lay.

One data set relates to AB1-HA tumor model. As to conditions: CTX treatment at Day 9; cited from earlier work.
For data set [1] the following is noted: background statement; cited from earlier work.
In data set [2] the test system is Fas in SW620 and LS411N cells. The data set can be described thus: Fas protein level on tumor cell surface by flow cytometry. Type of data set: cell-based, human. As to conditions: 3 days, 25 and 250 nM. The protocol:
SW620 and LS411N cells were cultured in the presence of F5446 for 3 days. Fas protein levels were analyzed by flow cytometry (FIG. 12A-12B).
(A flow cytometer gives signals particle by particle.)

The test system of data set [3] is MC38 and CT26 colon carcinoma tumors. The data set can be described thus: Colon carcinoma growth in vivo, MC38 in C57BL/6 and CT26 in BALB/c mice. As to conditions: F5446 10 mg/kg. The method, then:
Two different tumor cells were injected into two different strains of mice. MC38 cells (1.5×10^5 cells/mouse) were injected to thirty C57BL/6 mice subcutaneously. CT26 cells (2×10^5 cells/mouse) were injected to thirty BALB/c mice subcutaneously. Twenty mice from each strain with relatively similar sizes of tumors were randomized into four groups at day 8 after tumor cell injection. The four groups of tumor-bearing mice were treated with IgG/solvent (control), […] (10 mg/kg), anti-PD-1 mAb ([…]), and […]+anti-PD-1 mAb, respectively, every two days for 14 days.

The subject of data set [4] is CD3+ T cells from spleens of C57BL/6 mice. As to the kind of experiment: H3K9me3 ChIP and effector expression in activated CD3+ T cells. The class given is cell-based. As to conditions: activated mouse CD3+ T cells. The method, then: CD3^+ T cells were purified from spleens of C57BL/6 mice. The cells were stimulated in anti-CD3/CD28-coated plates for 2 days in the absence or presence of F5446 (50 nM). The resting, stimulated and treated T cells were then analyzed by ChIP (Chromatin Immunoprecipitation) with anti-H3K9me3 antibody and gene-specific PCR primers.

Data set [5] concerns CD8+ CTLs from CT26 tumor tissues. The data set can be described thus: H3K9me3 ChIP and qPCR in tumor-infiltrating CD8+ CTLs of CT26 tumor bearing mice. As to conditions: CD8+ CTLs from CT26 tumors, F5446-treated mice. The class given is in vivo. The method, then: CD8^+ CTLs were isolated from tumor tissues of the control and the F5446-treated groups of CT26 tumor bearing mice (from Example 13). ChIP analysis of H3K9me3 level in the promoter regions of GZMB, PRF1, FASLG and IFNG was performed. Further a qPCR analysis was performed to determine the expression levels of all four promoter regions.
In general terms: In qPCR the cycle at which signal appears reflects the starting amount.

Data set [6] concerns SW620 and LS411N cells. The data set can be described thus: Sensitisation of colon carcinoma cells to FasL-induced apoptosis. As to conditions: F5446 at sublethal dose plus FasL, 3 days. Type of data set: cell-based, human. The protocol:
SW620 and LS411N cells were cultured in the presence of F5446 and FasL, either alone or in combination, for 3 days. Cells were stained with PI and Annexin V and analyzed for apoptosis.
Apoptotic cell death was calculated as the difference between the percentage of PI^+ Annexin V^+ cells in the presence of F5446, FasL, or both and the percentage of PI^+ Annexin V+ cells in the absence of F5446 or FasL.

Data set [7] relates to H3K9me3 at the FAS promoter region in SW620 and LS411N cells. The data set can be described thus: ChIP of H3K9me3 at the FAS promoter region in colon carcinoma cells. As to conditions: 25 and 250 nM for 2 days. Type of data set: cell-based, human. The protocol:
SW620 and LS411N cells were treated with F5446 at 25, and 250 nM for 2 days and analyzed by ChIP using H3K9me3-specific antibody. The H3K9me3 antibody-immunoprecipitated DNA was amplified by PCR with FAS promoter DNA-specific primers and normalized to input genomic DNA.

The subject of data set [8] is SW620 and LS411N cells. As to the kind of experiment: Apoptosis of human colon carcinoma cells, PI/annexin V flow cytometry. As to conditions: 0.01, 0.05, 0.25 and 1 μM for 2 days. The class given is cell-based. The protocol:
SW620 and LS411N cells were cultured in the presence of F5446 at doses of 0.01, 0.05, 0.25, and 1 μM for 2 days. Cells were stained with propidium iodide (“PI”) and annexin V and analyzed for apoptosis by flow cytometry.
Apoptotic cell death was calculated as the difference between the percentage of PI^+ Annexin V^+ cells in the presence of F5446 and the percentage of PI^+ Annexin V^+ cells in the absence of F5446.

Data set [9] is described as follows: Toxicity of F5446 in mice: survival and serum liver enzyme profile. Type of data set: in vivo. The protocol: F5446 was injected into mice at a dose of 10 mg/kg body weight every 2 days for 6 days. Mouse survival was recorded. Serum was collected from the mice and analyzed for liver enzyme profiles at the University of Georgia Veterinary Diagnostic Laboratories.

Data set [10] deals with T1, recombinant human SUV39H1 (Homo sapiens, UniProt O43463).
T1 construct: purchased Reaction Biology Corp. (Malvern Pa.)
T1 sequence (O43463 1-412): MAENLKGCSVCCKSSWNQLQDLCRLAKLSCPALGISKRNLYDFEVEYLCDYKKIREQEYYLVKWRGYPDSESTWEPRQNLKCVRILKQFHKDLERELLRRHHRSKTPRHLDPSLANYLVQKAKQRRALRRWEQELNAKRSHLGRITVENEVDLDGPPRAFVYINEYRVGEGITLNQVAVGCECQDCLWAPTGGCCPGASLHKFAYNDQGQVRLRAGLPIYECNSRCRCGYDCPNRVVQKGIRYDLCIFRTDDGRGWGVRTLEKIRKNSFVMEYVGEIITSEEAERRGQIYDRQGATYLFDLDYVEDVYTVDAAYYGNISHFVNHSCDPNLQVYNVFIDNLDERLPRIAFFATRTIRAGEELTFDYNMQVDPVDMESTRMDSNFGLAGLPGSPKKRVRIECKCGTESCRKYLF
The data set can be described thus: HMTase EC50 assay with recombinant human SUV39H1 (Reaction Biology Corp.). The class given is biochemical. As to conditions: 10-dose, 3-fold serial dilutions; S-(methyl-3H) Adenosyl-L-Methionine; H3 peptide (N1-21); read-out: EC50 against recombinant human SUV39H1 in vitro. The protocol: F5446 was sent to Reaction Biology Corp. (Malvern Pa.) to validate its inhibitory activity and to determine its EC50 for SUV39H1. F5446 was assayed in a 10-dose EC50 mode with 3-fold serial dilutions using recombinant human SUV39H1 protein as the methyltransferase, S-(methyl-3H) Adenosyl-L-Methionine as the substrate, and H3 peptide (N1-21) as the template in the presence of indicated doses of F5446. The EC50 was calculated with Prizm Program.

Where [11] appears, read: MC38/C57BL/6 and CT26/BALB/c, anti-PD-1 mAb 200 mg/mouse, every two days for 14 days.
[12] abbreviates: mouse serum, 10 mg/kg every 2 days for 6 days.

Consider `O=P1(N(CCCl)CCCl)NCCCO1` (stereo not shown) [CTX, Cyclophosphamide], for which the cure rate with AB1-HA tumor model is on record as 75%.
Take `CN1C(=O)[C@]23SS[C@@]1(C)C(=O)N2[C@H]1Nc2ccccc2[C@@]1([C@@]12c4ccccc4N[C@@H]1N1C(=O)[C@@]4(C)SS[C@]1(C(=O)N4C)[C@H]2O)[C@@H]3O` [verticillin A]: the toxicity in vivo result in data set [1] is on record as “toxic in vivo”.
Regarding `COC(=O)c1cc2c(n1S(=O)(=O)c1ccc(Cl)cc1)C(=O)C(=O)c1[nH]cc(C(=O)OCc3ccccc3)c1-2` [F5446, 1-Benzyl 7-methyl 6-(4-chlorobenzenesulfonyl)-4,5-dioxo-3H,4H,5H,6H-pyrrolo[3,2-e]indole-1,7-dicarboxylate], in data set [2], the “tumor cell surface Fas expression (MFI)” value is “up-regulated tumor cell surface Fas expression”. Further, in data set [3] (setting [11]), the “established tumor growth over time (tumor volume)” value is listed as “suppressed the established tumor growth in a time-dependent manner”; the “tumor growth as measured by tumor size and tumor weight” value is reported as “significantly reduced tumor growth”. The “expression levels of granzymeB, perforin, FasL and IFNγ in tumor tissues (qPCR)” value in [3] (tumor tissues of C57BL/6 and BALB/c mice) is reported as “significantly increased”. In [4] (F5446 50 nM, 2 days, ChIP), the “H3K9me3 levels in the promoter regions of GZMB, PRF1, FASLG and IFNG” value was “reduced H3K9me3 levels”. The “expression of GZMB, PRF1, FASLG and IFNG” value in data set [4] (increasing doses of F5446) was “increased expression of all four effector genes in a dose-dependent manner”. In addition, in [5], the “expression levels of granzymeB, perforin, FasL and IFNγ in tumor-infiltrating CTLs (qPCR)” value was “significantly increased”. Further, the “H3K9me3 levels in the promoter regions of GZMB, PRF1, FASLG and IFNG in tumor-infiltrating CTLs” value in data set [5] (ChIP) is listed as “decreased H3K9me3 levels”. Further, the “sensitivity to FasL-induced apoptosis” value in the data set on SW620 and LS411N cells [6] is on record as “significantly increased human colon carcinoma cells to FasL-induced apoptosis”. The “H3K9me3 at the FAS promoter region” value in [7] is reported as “inhibits H3K9me3 at the FAS promoter region”. For the same compound, the apoptotic cell death entry in the data set on SW620 and LS411N cells [8] was “induced human colon carcinoma cell death in a dose-dependent manner”. The compound also gave a survival rate in [9] (mice, 10 mg/kg body weight every 2 days for 6 days) of 100%. The “liver enzyme profile, overall finding” value in data set [9] (mice, 10 mg/kg every 2 days for 6 days) is recorded as “did not cause toxic levels of liver enzymes in vivo”. Besides, in data set [9] (setting [12]), the ALP is recorded as 60.3 U/L, the ALT is given as 71.3 U/L, the AST came out at 444.3 U/L and the Albumin came to 3.3 g/dL. In [9] (setting [12]), the Cholesterol worked out at 119 mg/dL, the GGT was under 3 U/L, the “Total Bilirubin” value turned out to be 0.1 mg/dL and the Total protein was determined as 5.7 g/dL. In addition, the EC50 (usually the concentration needed to bring the measured effect to its halfway point) in data set [10] turned out to be 496 nM.
For the compound `CN1C(=O)[C@@]23C[C@]4([C@]56C[C@@]78SS[C@@](CO)(C(=O)N7[C@H]5Nc5ccccc56)N(C)C8=O)c5ccccc5N[C@@H]4N2C(=O)[C@]1(CO)SS3` [chaetocin], the toxicity in vivo result in data set [1] is “toxic in vivo”.
